Among the data in patent publication US7037905B2, “Pharmaceutical use of boronic acids and esters thereof” (Novo Nordisk A/S, priority 2002, dated 2006) are activity values, retold here.

Molecules are shown by their SMILES.

This assay concerns the target T1, hormone sensitive lipase (Homo sapiens, UniProt Q05469).
T1 sequence (Q05469 1-1076): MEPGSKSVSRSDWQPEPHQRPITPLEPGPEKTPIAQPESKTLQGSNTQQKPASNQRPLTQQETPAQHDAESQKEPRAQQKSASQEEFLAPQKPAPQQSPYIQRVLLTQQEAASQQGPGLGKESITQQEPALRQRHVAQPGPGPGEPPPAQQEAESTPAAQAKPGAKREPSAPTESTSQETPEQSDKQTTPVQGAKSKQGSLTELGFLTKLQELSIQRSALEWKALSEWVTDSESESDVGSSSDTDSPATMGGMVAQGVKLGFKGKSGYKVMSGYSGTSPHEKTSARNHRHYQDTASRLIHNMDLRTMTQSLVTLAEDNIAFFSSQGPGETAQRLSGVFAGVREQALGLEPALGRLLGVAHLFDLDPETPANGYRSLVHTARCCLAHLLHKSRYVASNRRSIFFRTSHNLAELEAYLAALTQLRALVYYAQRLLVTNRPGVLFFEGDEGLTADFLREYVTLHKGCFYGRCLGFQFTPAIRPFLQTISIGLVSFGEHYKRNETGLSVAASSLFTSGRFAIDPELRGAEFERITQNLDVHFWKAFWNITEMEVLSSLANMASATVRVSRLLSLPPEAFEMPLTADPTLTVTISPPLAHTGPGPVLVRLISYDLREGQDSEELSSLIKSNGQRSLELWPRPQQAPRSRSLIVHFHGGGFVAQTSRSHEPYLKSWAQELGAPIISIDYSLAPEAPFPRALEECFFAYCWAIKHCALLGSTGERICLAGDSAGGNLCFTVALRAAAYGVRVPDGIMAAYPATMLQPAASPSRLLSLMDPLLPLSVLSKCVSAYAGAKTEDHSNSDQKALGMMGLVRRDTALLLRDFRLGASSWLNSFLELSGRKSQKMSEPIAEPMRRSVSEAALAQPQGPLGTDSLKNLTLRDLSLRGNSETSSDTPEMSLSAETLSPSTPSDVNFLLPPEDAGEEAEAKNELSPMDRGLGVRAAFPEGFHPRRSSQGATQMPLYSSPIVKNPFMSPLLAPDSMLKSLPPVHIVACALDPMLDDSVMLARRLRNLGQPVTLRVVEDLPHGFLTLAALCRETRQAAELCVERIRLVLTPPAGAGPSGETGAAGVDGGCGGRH
The experiment in a line: TEST 3190.1 HSL-FL: percent inhibition of hormone sensitive lipase at 10 μM, fluorochrome-labeled triacylglyceride emulsion. The assay is classed as biochemical. The note with it: 10 μM sample concentration; percent activity relative to a non-inhibited sample; 30 min preincubation 25° C., 120 min at 37° C. The procedure: 3190.1: Assay for determination of percent inhibition of hormone sensitive lipase by compound at 10 μM sample concentration.
A lipid emulsion with fluorochrome-labeled triacylglyceride and phospholipid is used as substrate with a standard concentration of highly purified HSL (12 μg/mL initial concentration corresponding to 600 ng/mL final concentration). BSA is added as product receptor. The transfer of the fluorochrome from the lipid phase to the water (BSA) phase changes the fluorescent properties of the fluorochrome. The changes can be monitored on a fluorimeter with an excitation wavelength of 450 nm and an emission wavelength of 545 nm.
Compound and HSL (2 μL compound, 10 μL enzyme and 70 μL PED-BSA buffer) is pre-incubated for 30 min at 25° C. before addition of substrate (100 μL). Amount of formed product is measured after 120 min incubation at 37° C.
Results are given as percent activity relative to a non-inhibited sample (no compound).
In turn, `Cc1csc(B2OC(C)(C)C(C)(C)O2)c1` [Example 32, 4,4,5,5-Tetramethyl-2-(4-methylthiophen-2-yl)-[1,3,2]dioxaborolane] yielded an activity at 10 µM of 52%.
The compound `OB(O)c1ccc(Cl)c(Cl)c1` [Example 74, 3,4-Dichlorophenylboronic acid] came in with an activity at 10 µM of 53%.
In turn, `OB(O)c1ccc2[nH]ccc2c1` [Example 75, 5-INDOLYL BORONIC ACID] registered an activity at 10 µM of 100%.
In turn, `O=Cc1cccc(B(O)O)c1` [Example 76, 3-Formylphenylboronic acid] registered an activity at 10 µM of 80%.
`CN(C)C(=O)c1ccc(B(O)O)cc1` [Example 77, 4-(N,N-DIMETHYLCARBAMOYL)PHENYLBORONIC ACID] had an activity at 10 µM of 98%.
